Reference: patent US20210371463A1, “Modified Netrin-1 Peptides and Compositions for Cardioprotection” (The Regents of the University of California, priority 2018, published 2021)
Bridge positions count the residues as written; N and C are the ends. Ends that are not written are not given here. mini‑PEG = diethylene glycol

Tested on: mouse hearts subjected to ischemia/reperfusion (I/R) injury
Test: Langendorff perfusion ischemia/reperfusion (I/R) injury, infarct size analysis (TTC staining)
Design: % MI Reduction: concentration or dose not given beside the values
Details: for % MI Reduction: vs. I/R Control; for % Improvement in MI Reduction: modified peptide vs. closest prior art peptide (V1-9aa, V2-10aa or V3-11aa); for Infarct size: fragments of prior art peptides, Control I/R 37.6±1.3%, Mean±SEM, p<0.001
Description: Male C57BL/6J mice (8-12 weeks old) were obtained from the Charles River Laboratories (Wilmington, Mass., USA). After anesthetized with intraperitoneal pentobarbitone (60 mg/kg), mouse hearts were harvested immediately and the aortas were cannulated with a 20-gauge stainless steel blunt needle and transferred to the Langendorff rig and perfused retrograde instantly with modified Krebs-Henseleit buffer (KHB) for 30 minutes as previously described. See Bouhidel et al. Front Biosci (Landmark Ed) 2014; 19:566-570, and Zhang et al., J Mol Cell Cardiol. 2010; 48:1060-1070. Then hearts were pre-perfused for 45 minutes with or without netrin-1 (100 ng/ml), or different peptide fragments at the same molar concentration 1.47 nmol/L as netrin-1, prior to being subjected to ischemia/reperfusion (I/R) injury (a 20-minute global ischemia followed by a 60-minute reperfusion with or without netrin-1 or different peptide fragments). Hearts were then harvested for analyses of infarct size. For post-conditioning treatment with peptide fragments, hearts underwent 40 minutes of KHB perfusion, 20 minutes of global ischemia, and a 60-minute reperfusion with different peptide fragments.
At the end of I/R protocol, hearts were sliced perpendicular to the long-axis of the heart at 1 mm intervals and stained with 1% triphenyl tetrazolium chloride (TTC) in PBS for 10 minutes at room temperature. After washing with PBS once, sections of the hearts will be fixed in 10% formalin overnight. The heart slices were then digitally photographed for planimetry using NIH Image 1.62. Infarct size is expressed as an infarct-to-risk zone ratio (the risk zone is the whole ventricular volume in this global ischemic model).
Densitometric data of western blotting was obtained by software Image J. Grouped data was analyzed by software Gradpad Prism δ. All values are expressed as Mean±SEM. Comparisons of more than two groups were performed using a one way ANOVA analysis with Newman-Keuls test as a post-hoc test. Statistical significance is set as p<0.05.

[1] = Table 2, modified netrin-1 peptides, I/R Control 43.1625, p < 0.001 vs. Control
[2] = Table 2, modified netrin-1 peptides
[3] = Table 1, prior art peptides, I/R Control 37.6

| Substance | Infarct Size Mean (%) [1] [%] | % MI Reduction [2] [%] | % Improvement in MI Reduction | Infarct Size Mean (%) [3] [%] | % MI Reduction (Table 1, prior art peptides) [%] | Infarct size [%] |
| --- | --- | --- | --- | --- | --- | --- |
| (mini-PEG)-CDCRHNTAG ({mini‑PEG}-CDCRHNTAG; cysteine pairing not given here) [V1P] | 10.0100 | 77 | (77 − 55)/55 = 40% | – | – | – |
| (mini-PEG)-CLNCRHNTAG ({mini‑PEG}-CLNCRHNTAG; cysteine pairing not given here) [V2P] | 18.3315 | 58 | (58 − 51)/51 = 14% | – | – | – |
| (mini-PEG)-CPCKDGVTIGIT ({mini‑PEG}-CPCKDGVTIGIT; cysteine pairing not given here) [V3P] | 12.9700 | 70 | – | – | – | – |
| CDCRHNTAG (disulfide 1-3) [V1C] | 11.2700 | 74 | (74 − 55)/55 = 35% | – | – | – |
| CDCRHNTAG (not fully specified (bridges); cysteine pairing not given here) [V1-9aa, reference compound] | – | – | – | 16.8 | 55 | 16.8±2.2 |
| CLNCRHNTAG (Peptide based on human Netrin-1 sequence) [V2-10aa, reference compound] | – | – | – | 18.6 | 51 | 18.6±1.7 |
| CPCKDGVTGIT (Peptide based on human Netrin-1 sequence) [V3-11aa, reference compound] | – | – | – | 16.7 | 56 | 16.7±3.0 |
| SDCRHNTAG (Peptide based on human Netrin-1 sequence) [V1S] | 12.7750 | 71 | (71 − 55)/55 = 29% | – | – | – |
| TDCRHNTAG [V1T] | 15.4650 | 64 | (64 − 55)/55 = 16% | – | – | – |
